Literature values in patent US11825820B2, “Poly-glutamine androgen receptor knock-in mouse models, reagents and methods” (priority 2017, dated 2023).
Where two headings read alike, the source gives them in different places.

Key:
NASH = settings: 30 mg/day
[1] = system: patients with NASH/NAFLD scores of 3 to 8
[2] = system: patients with nonalcoholic steatohepatitis; settings: 24 weeks
[3] = 100 mg, 250 mg vs Pioglitazone 45 mg; 28 days

CCc1ccc(CCOc2ccc(CC3SC(=O)NC3=O)cc2)nc1 (stereo not drawn) [Pioglitazone]
side effects (NASH): weight gain, edema, bone fractures and increased risk of bladder cancer

CSc1ccc(C(=O)/C=C/c2cc(C)c(OC(C)(C)C(=O)O)c(C)c2)cc1 [Elafibranor]
histological parameters NASH (steatosis, inflammation, fibrosis) (animal models of NASH): Beneficial effects on histological parameters NASH
anti-inflammatory effects ([1]; Phase IIb claims): Anti-inflammatory effects
insulin sensitivity and glucose homeostasis ([1]; Phase IIb claims): Improved insulin sensitivity and glucose homeostasis
markers of hepatic dysfunction, including liver enzymes ALT, AST, GGT, ALP ([1]; Phase IIb claims): Improvement in markers of hepatic dysfunction
plasma lipids (triglyceride, LDL-C, HDL-C) ([1]; Phase IIb claims): reduction in triglyceride and LDL-C and increased HDL-C levels
RR, Elafibranor vs placebo ([1]; Phase IIb, after withdrawal of NAS <4 patients): 1.9
positive result, Elafibranor vs placebo ([1]; Phase IIb, after withdrawal of NAS <4 patients, placebo 12.7%, p=0.046): 22.4%
safety profile ([1]; clinical trials, toxicology studies up to two-year carcinogenicity): good safety profile with no unwanted side effects
statistical significance of results across the entire study population ([1]; entire study population incl. NAS <4 patients): prevented Elafibranor from having statistically significant results

Cc1cc(F)c(C(=O)Nc2cccc(-c3nncn3C(C)C)n2)cc1-n1cnc(C2CC2)c1 [selonsertib]
proportion of patients with a one or more stage reduction in fibrosis ([2]; 6-mg selonsertib group, 8 of 27, 95% CI 14-50): 30%
proportion of patients with a one or more stage reduction in fibrosis ([2]; 18-mg selonsertib group, 13 of 30, 95% CI 26-63): 43%

COc1cccc(C(=O)COc2ccc(CC3SC(=O)[N-]C3=O)cc2)c1.[K+] (stereo not drawn) [MSCD-0602K]
adiponectin levels vs Pioglitazone [3]: equivalent to Pioglitazone
overall glucose control vs Pioglitazone [3]: equivalent to Pioglitazone

B1: simtuzumab (antibody, chains of the INN, looked up, V domains shown)
VH: QVQLVQSGAEVKKPGASVKVSCKASGYAFTYYLIEWVRQAPGQGLEWIGVINPGSGGTNYNEKFKGRATITADKSTSTAYMELSSLRSEDTAVYFCARNWMNFDYWGQGTTVTVSS
VL: DIVMTQTPLSLSVTPGQPASISCRSSKSLLHSNGNTYLYWFLQKPGQSPQFLIYRMSNLASGVPDRFSGSGSGTDFTLKISRVEAEDVGVYYCMQHLEYPYTFGGGTKVEIK
notes: comparator group (simtuzumab-alone) in the selonsertib Phase 2 study
proportion of patients with a one or more stage reduction in fibrosis ([2]; simtuzumab-alone group, 2 of 10, 95% CI 3-56): 20%
